Laboratory results from BindingDB's records for doi:10.3109/14756366.2012.719503 (Kinki University, 2013).

target: Alpha-glucosidase MAL12 (Saccharomyces cerevisiae (strain ATCC 204508 / S288c), UniProt P53341); test: α-glucosidase Inhibitory Activity Assay; conditions: pH 7; 25 °C
Procedure: α-glucosidase (25 μL, 0.2 U/mL), 25 μL of various concentrations of samples, and 175 μL of 50 mM sodium phosphate buffer (pH 7.0) were mixed at room temperaturefor 10 min. The reaction was started by the addition of 25 μL of 2.5 mM p-nitrophenyl-α-d-glucopyranoside. […] Control sample contained 25 μL DMSO in place of test samples.

Sequence of Alpha-glucosidase MAL12 (P53341 whole entry): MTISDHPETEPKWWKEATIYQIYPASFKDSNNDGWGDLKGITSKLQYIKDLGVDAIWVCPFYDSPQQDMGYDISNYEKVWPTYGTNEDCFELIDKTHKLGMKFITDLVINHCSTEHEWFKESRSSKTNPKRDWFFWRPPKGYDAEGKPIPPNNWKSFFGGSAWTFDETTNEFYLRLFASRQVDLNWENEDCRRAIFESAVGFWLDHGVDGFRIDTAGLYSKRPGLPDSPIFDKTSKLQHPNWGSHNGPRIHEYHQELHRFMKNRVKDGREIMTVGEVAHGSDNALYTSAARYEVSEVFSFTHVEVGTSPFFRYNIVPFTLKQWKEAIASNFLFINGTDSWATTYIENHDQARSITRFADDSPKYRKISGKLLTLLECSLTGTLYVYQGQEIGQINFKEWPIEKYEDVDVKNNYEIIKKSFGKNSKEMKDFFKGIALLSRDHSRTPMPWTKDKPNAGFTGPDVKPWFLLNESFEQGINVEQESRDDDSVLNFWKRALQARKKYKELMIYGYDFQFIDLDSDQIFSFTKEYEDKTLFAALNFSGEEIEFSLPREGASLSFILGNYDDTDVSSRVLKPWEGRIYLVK

| SMILES | IC50 |
| --- | --- |
| COc1cc(C(=O)O)ccc1O [4-hydroxy-3-methoxybenzoic acid] | > 300 µM |
| COc1c(O)cc2c(c1O)C1O[C@H](COC(=O)c3ccccc3)[C@@H](O)[C@H](O)C1OC2=O (stereo not given in full) [11-O-benzoylbergenin (2)] | 118 µM |
| O=C(O)c1ccc(O)cc1 [4-Hydroxybenzoate, III] | > 300 µM |
| COc1c(O)cc2c(c1O)C1O[C@H](COC(=O)c3ccc(O)cc3)[C@@H](O)[C@H](O)C1OC2=O (stereo not given in full) [11-O-p-hydroxybenzoylbergenin (3)] | 143 µM |
| COc1cc(OC)cc(C(=O)OC[C@H]2OC3c4c(cc(O)c(OC)c4O)C(=O)OC3[C@@H](O)[C@@H]2O)c1 (stereo not given in full) [11-O-(3',5'-dimethoxybenzoyl)-bergenin (8)] | > 300 µM |
| COc1c(O)cc2c(c1O)C1O[C@H](COC(=O)c3ccc(O)c(O)c3)[C@@H](O)[C@H](O)C1OC2=O (stereo not given in full) [11-O-protocatechuoylbergenin (5)] | 290 µM |
| COc1ccc(C(=O)O)cc1 [Anisic acid] | > 300 µM |
| COc1cc(C(=O)OC[C@H]2OC3c4c(cc(O)c(OC)c4O)C(=O)OC3[C@@H](O)[C@@H]2O)cc(OC)c1O (stereo not given in full) [11-O-syringylbergenin (9)] | > 300 µM |
| COc1c(O)cc2c(c1O)C1O[C@H](CO)[C@@H](O)[C@H](O)C1OC2=O (stereo not given in full) [Bergenin (1)] | > 300 µM |
| COc1cc(C(=O)OC[C@H]2OC3c4c(cc(O)c(OC)c4O)C(=O)OC3[C@@H](O)[C@@H]2O)ccc1O (stereo not given in full) [11-O-vanilloylbergenin (7)] | 187 µM |
| COc1ccc(C(=O)OC[C@H]2OC3c4c(cc(O)c(OC)c4O)C(=O)OC3[C@@H](O)[C@@H]2O)cc1OC (stereo not given in full) [11-O-(3',4'-dimethoxybenzoyl)-bergenin (6)] | 24.6 µM |
| COc1ccc(C(=O)OC[C@H]2OC3c4c(cc(O)c(OC)c4O)C(=O)OC3[C@@H](O)[C@@H]2O)cc1 (stereo not given in full) [11-O-p-methoxybenzoylbergenin (4)] | 144 µM |
| COc1ccc(C(=O)O)cc1OC [3,4-dimethoxybenzoic acid] | > 300 µM |
| O=C(O)c1ccccc1 [SAMPL4, O1] | > 300 µM |
| O=C(O)c1ccc(O)c(O)c1 [Protocatechuic acid (M1)] | > 300 µM |
